Source: paper PMC4320118, “Micheliolide Derivative DMAMCL Inhibits Glioma Cell Growth In Vitro and In Vivo” (PLoS ONE, 2015)
Like-named read-outs stand apart in the source and are kept apart here.

How the values were obtained:
U-87MG cells [1] = assay: Apoptosis by Annexin V/PI flow cytometry, U-87MG; type: cell-based, human
[2] = Locomotor activity (neurological effects); type: in vivo, Wistar rats
Description: Locomotor activity was used to assess neurological effects of DMAMCL. Wistar rats (150–170 g) were divided into the following 3 groups (10 rats /group): 1) vehicle control, 2) DMAMCL at 100 mg/kg, and 3) DMAMCL at 300 mg/kg. DMAMCL was administered orally once a day for 21 days. Rat locomotor activities were monitored on days 1, 10, 21 and 28 using Aninal Behavioral Analysis System (AniLab Software and Instruments Co, Ltd, China). Briefly, rats were gently placed in the locomotor activity boxes equipped with infrared photobeams and individual total distance (cm) of rat running was recorded during a test period of 60 min. The test apparatus was cleaned to eliminate odors for the next test after each animal was tested.

AML models = settings: cited from earlier work
U-87MG cells [3] = assay: Cell proliferation MTT assay, U-87MG; type: cell-based; settings: Homo sapiens, 72 h
Description: C6 and U-87MG cell lines were obtained from the American Type Culture Collection (ATCC) and cultured in our laboratory. Rat C6 glioma cells were cultured in F12K nutrient medium (Gibco, Grand Island, […]) supplemented with 15% horse serum (Auckland, NZ), 2.5% fetal bovine serum (FBS), 100 U/mL penicillin, and […] streptomycin (Gibco, Paisley, Scotland, UK). Human U-87MG cells were cultured in minimum essential medium (MEM) supplemented with 10% FBS, 1% nonessential amino acids, 100 U/mL penicillin, and […] streptomycin. Cells were cultured under a humidified atmosphere containing 5% CO2 at 37°C, and medium was changed every 1 to 2 days.
Tumor cells were seeded in 96-well plates at a density of 3500 cells/well. After 24 h in culture, cells were exposed to different concentrations of DMAMCL or medium alone (control) for 72 h. Cell viability was determined by MTT assays. Briefly, MTT regent (0.5 mg/mL) was added to wells, and cells were incubated for 4 h at 37°C. After removing the supernatant, 200 μL of dimethyl sulfoxide (DMSO) (Fluka, Switzerland) was added to dissolve formazan crystals. The absorbance at 570 nm was measured by a microplate reader (Thermo Labsystems, Helsinki, Finland). Control absorbance was taken as 100%. The absorbance of DMAMCL-treated cells was taken as percentage survival. […]

## CC1=C2CC[C@@](C)(O)[C@@H]2[C@H]2OC(=O)[C@@H](CN(C)C)[C@@H]2CC1 [DMAMCL, dimethylaminomicheliolide]
U-87MG cells [1]; 240 μM
  Surviving cells: few surviving
U-87MG cells [1]; 24 hr post-treatment, dose-dependent
  Early and late apoptosis and necrosis: significantly increased early and late apoptosis and necrosis
[2]; 100mg/kg orally once a day for 21 days, observation period
  Locomotor activity: as active as vehicle group
[2]; 300mg/kg orally once a day, following days
  Locomotor activity, total distance: still less active than vehicle group, but without significant statistical difference
[2]; 300mg/kg orally, first day
  Locomotor activity, total distance: decreased compared with vehicle group
[2]; 300mg/kg, within one week of DMAMCL withdrawal
  Locomotor activity, total distance: no significant changes were observed
AML models
  Therapeutic efficacy in AML models: superior therapeutic efficacy
U-87MG cells [3]; read-out: IC50
  IC50: 20.6 ± 1.61 µM
U-87MG cells [3]; read-out: x0 (midpoint of logistic fit, Fig 3B) (converted)
  IC50: 20.6 ± 1.6 µM
